Assay results: patent US6376497B1, “Antifungal azole derivatives having a fluorinated vinyl group and process for preparing same” (Korea Research Institute of Chemical Technology, priority 1999, dated 2002)

What was measured:
Assay in all cases: In vitro antifungal activity, microbroth dilution MIC
Format in all cases: cell-based
[1] = system: Candida tropicalis A. 13803; details: 4 to 48 hours; for Minimal inhibitory concentration (MIC): C. tropicalis A. 13803, RPMI-1640, 35° C.; for Minimal inhibitory concentration(MIC), C. tropicalis A. 13803: RPMI-1640, 35° C., no growth observed
In short: (§1)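 Broth microdilution adapted from NCCLS M27, in RPMI-1640 with 0.165 M MOPS, pH 7.0. Yeast or mould inoculum at 2×10^3 CFU/ml was mixed 1:1 with DMSO-derived compound solutions (200 to 0.10 μg/ml before mixing) and incubated at 35 °C for 4 to 48 h. MIC was the concentration showing no growth.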

[2] = system: Aspergillus furnigatus B. 19119; details: 4 to 48 hours; for Minimal inhibitory concentration (MIC): A furnigatus B. 19119, RPMI-1640, 35° C.; for Minimal inhibitory concentration(MIC), A furnigatus B. 19119: RPMI-1640, 35° C., no growth observed
In short: as §1

[3] = system: Trichophyton mentagrophytes A. 9129; details: 4 to 48 hours; for Minimal inhibitory concentration (MIC): T. mentagrophytes A. 9129, RPMI-1640, 35° C.; for Minimal inhibitory concentration(MIC), T. mentagrophytes A. 9129: RPMI-1640, 35° C., no growth observed
In short: as §1

[4] = system: Aspergillus niger A. 16404; details: 4 to 48 hours; for Minimal inhibitory concentration (MIC): A. niger A. 16404, RPMI-1640, 35° C.; for Minimal inhibitory concentration(MIC), A. niger A. 16404: RPMI-1640, 35° C., no growth observed
In short: as §1

[5] = system: Cryptococcus neoformans A. 34144; details: 4 to 48 hours; for Minimal inhibitory concentration (MIC): Cry. neoformans A. 34144, RPMI-1640, 35° C.; for Minimal inhibitory concentration(MIC), Cry. neoformans A. 34144: RPMI-1640, 35° C., no growth observed
In short: as §1

[6] = system: Cryptococcus neoformans B. 42419; details: 4 to 48 hours; for Minimal inhibitory concentration (MIC): Cry. neoformans B. 42419, RPMI-1640, 35° C.; for Minimal inhibitory concentration(MIC), Cry. neoformans B. 42419: RPMI-1640, 35° C., no growth observed
In short: as §1

[7] = system: Candida albicans IFO. 1385; details: 4 to 48 hours; for Minimal inhibitory concentration (MIC): C. albicans IFO. 1385, RPMI-1640, 35° C.; for Minimal inhibitory concentration(MIC), C. albicans IFO. 1385: RPMI-1640, 35° C., no growth observed
In short: as §1

[8] = system: Candida pseudotropicalis K. 11658; details: 4 to 48 hours; for Minimal inhibitory concentration (MIC): C. pseudotropicalis K. 11658, RPMI-1640, 35° C.; for Minimal inhibitory concentration(MIC), C. pseudotropicalis K. 11658: RPMI-1640, 35° C., no growth observed
In short: as §1

[9] = system: Trichophyton mentagrophytes B. 32663; details: 4 to 48 hours; for Minimal inhibitory concentration (MIC): T. mentagrophytes B. 32663, RPMI-1640, 35° C.; for Minimal inhibitory concentration(MIC), T. mentagrophytes B. 32663: RPMI-1640, 35° C., no growth observed
In short: as §1

Candida krusei K. 11655 = details: 4 to 48 hours; for Minimal inhibitory concentration (MIC): C. krusei K. 11655, RPMI-1640, 35° C.; for Minimal inhibitory concentration(MIC), C. krusei K. 11655: RPMI-1640, 35° C., no growth observed
In short: as §1

Candida albicans C1-2 = details: 4 to 48 hours; for Minimal inhibitory concentration (MIC): C. albicans C1-2, RPMI-1640, 35° C.; for Minimal inhibitory concentration(MIC), C. albicans C1-2: RPMI-1640, 35° C., no growth observed
In short: as §1

[10] = system: Candida albicans A. 10231; details: 4 to 48 hours; for Minimal inhibitory concentration (MIC): C. albicans A. 10231, RPMI-1640, 35° C.; for Minimal inhibitory concentration(MIC), C. albicans A. 10231: RPMI-1640, 35° C., no growth observed
In short: as §1

[11] = system: Cryptococcus neoformans IFM. 40092; details: 4 to 48 hours; for Minimal inhibitory concentration (MIC): Cry. neoformans IFM. 40092, RPMI-1640, 35° C.; for Minimal inhibitory concentration(MIC), Cry. neoformans IFM. 40092: RPMI-1640, 35° C., no growth observed
In short: as §1

[12] = system: Candida parapsitosis A. 7330; details: 4 to 48 hours; for Minimal inhibitory concentration (MIC): C. parapsitosis A. 7330, RPMI-1640, 35° C.; for Minimal inhibitory concentration(MIC), C. parapsitosis A. 7330: RPMI-1640, 35° C., no growth observed
In short: as §1

[13] = system: Torulopsis glabrata B. 16205; details: 4 to 48 hours; for Minimal inhibitory concentration (MIC): T. glabrata B. 16205, RPMI-1640, 35° C.; for Minimal inhibitory concentration(MIC), T. glabrata B. 16205: RPMI-1640, 35° C., no growth observed
In short: as §1

Minimal inhibitory concentration (MIC) [1] [µg/mL] | Minimal inhibitory concentration (MIC) [2] [µg/mL] | Minimal inhibitory concentration (MIC) [3] [µg/mL] | Minimal inhibitory concentration (MIC) [4] [µg/mL] | Minimal inhibitory concentration (MIC) [5] [µg/mL] | Minimal inhibitory concentration (MIC) [6] [µg/mL] | Minimal inhibitory concentration (MIC) [7] [µg/mL] | Minimal inhibitory concentration (MIC) [8] [µg/mL] | Minimal inhibitory concentration (MIC) [9] [µg/mL] | Minimal inhibitory concentration (MIC) (Candida krusei K. 11655) [µg/mL] | Minimal inhibitory concentration (MIC) (Candida albicans C1-2) [µg/mL] | Minimal inhibitory concentration (MIC) [10] [µg/mL] | Minimal inhibitory concentration (MIC) [11] | Minimal inhibitory concentration (MIC) [12] [µg/mL] | Minimal inhibitory concentration (MIC) [13] [µg/mL] | Minimal inhibitory concentration(MIC), C. tropicalis A. 13803 [1] [µg/mL] | Minimal inhibitory concentration(MIC), A furnigatus B. 19119 [2] [µg/mL] | Minimal inhibitory concentration(MIC), T. mentagrophytes A. 9129 [3] [µg/mL] | Minimal inhibitory concentration(MIC), A. niger A. 16404 [4] [µg/mL] | Minimal inhibitory concentration(MIC), Cry. neoformans A. 34144 [5] [µg/mL] | Structure (SMILES) | also measured
50.0 | 1.56 | 1.56 | 12.5 | 1.56 | 0.78 | 0.78 | 25.0 | 1.56 | 50.0 | 12.5 | 6.25 | ≦0.10 μg/ml | >100 | 3.13 | – | – | – | – | – | FC(OCC1COC(Cn2ccnc2)(c2ccc(F)cc2F)O1)=C(c1cccs1)C(F)(F)F (mixture of isomers) [Ex. 68] | –
– | – | – | – | – | – | – | – | – | – | – | – | – | – | – | >100 | 50.0 | 12.5 | >100 | 1.56 | CCCCc1ccc(C(=C(F)N2CCN(c3ccc(OCC4COC(Cn5ccnc5)(c5ccc(F)cc5F)O4)cc3)CC2)C(F)(F)F)cc1 (mixture of isomers) [Ex. 140] | Minimal inhibitory concentration(MIC), Cry. neoformans B. 42419 [6]: 1.56 µg/mL; Minimal inhibitory concentration(MIC), C. albicans IFO. 1385 [7]: 1.56 µg/mL; Minimal inhibitory concentration(MIC), C. pseudotropicalis K. 11658 [8]: 1.56 µg/mL; Minimal inhibitory concentration(MIC), T. mentagrophytes B. 32663 [9]: 0.39 µg/mL; Minimal inhibitory concentration(MIC), C. krusei K. 11655 (Candida krusei K. 11655): 3.13 µg/mL; Minimal inhibitory concentration(MIC), C. albicans C1-2 (Candida albicans C1-2): >100 µg/mL; Minimal inhibitory concentration(MIC), C. albicans A. 10231 [10]: >100 µg/mL; Minimal inhibitory concentration(MIC), Cry. neoformans IFM. 40092 [11]: 0.39 µg/mL; Minimal inhibitory concentration(MIC), C. parapsitosis A. 7330 [12]: 1.56 µg/mL; Minimal inhibitory concentration(MIC), T. glabrata B. 16205 [13]: 100 µg/mL
– | – | – | – | – | – | – | – | – | – | – | – | – | – | – | 100 | >100 | 6.25 | >100 | 1.56 | Cc1cccc(C(=C(F)N2CCN(c3ccc(OCC4COC(Cn5ccnc5)(c5ccc(Cl)cc5Cl)O4)cc3)CC2)C(F)(F)F)c1 (mixture of isomers) [Ex. 125] | Minimal inhibitory concentration(MIC), Cry. neoformans B. 42419 [6]: 3.13 µg/mL; Minimal inhibitory concentration(MIC), C. albicans IFO. 1385 [7]: 1.56 µg/mL; Minimal inhibitory concentration(MIC), C. pseudotropicalis K. 11658 [8]: >100 µg/mL; Minimal inhibitory concentration(MIC), T. mentagrophytes B. 32663 [9]: 3.13 µg/mL; Minimal inhibitory concentration(MIC), C. krusei K. 11655 (Candida krusei K. 11655): >100 µg/mL; Minimal inhibitory concentration(MIC), C. albicans C1-2 (Candida albicans C1-2): 25.0 µg/mL; Minimal inhibitory concentration(MIC), C. albicans A. 10231 [10]: 25.0 µg/mL; Minimal inhibitory concentration(MIC), Cry. neoformans IFM. 40092 [11]: 0.39 µg/mL; Minimal inhibitory concentration(MIC), C. parapsitosis A. 7330 [12]: >100 µg/mL; Minimal inhibitory concentration(MIC), T. glabrata B. 16205 [13]: 50.0 µg/mL
>100 | >100 | 25.0 | >100 | 1.56 | 1.56 | 3.13 | >100 | 6.25 | >100 | 50.0 | 25.0 | 0.39 µg/mL | >100 | 25.0 | – | – | – | – | – | FC(OCC1COC(Cn2ccnc2)(c2ccc(F)cc2F)O1)=C(c1ccc(Oc2ccccc2)cc1)C(F)(F)F (mixture of isomers) [Ex. 63] | –
